Patent US20020127282A1, “Multivalent silver pharmaceuticals” (priority 1991, published 2002)
Like-named read-outs stand apart in the source and are kept apart here.

Key:
Chorella species = format: cell-based; conditions: within 5 minutes; Chorella species incubated for 10 days in algae nutrient
Procedure: (§4) Select compounds of said moieties were also evaluated against algae utilizing Chorella species incubated for 10 days in algae nutrient. […] It was evaluated at 0.5 and 1.0 PPM on gram positive and negative cultures in the presence of 10 PPM sodium persulfate.

E. coli [1] = conditions: trypticase soy nutrient broth
Procedure: (§1) More stringent testing was then performed in which the cultures were actually placed in trypticase soy nutrient broth, which allowed the pathogens being tested to replicate without being detached from its own food supply.

[2] = system: Pseudomonas aeruginosa 9027; conditions: concentration not given
Procedure: as §1

[3] = system: Streptococcus faecalis strain 10541; conditions: trypticase soy nutrient broth
Procedure: as §1

[4] = system: Saccharomycetpideae variety; conditions: Sabouraud dextrose broth
Source text: Silver tetroxide was further evaluated in analogous nutrient used for yeasts and molds, namely, Sabouraud dextrose broth.

[5] = rats
Procedure: (§2) Tests were conducted to see whether said tetroxide posed any harm to the human body. Accordingly, a 3% concentrate of the compound was prepared for a series of evaluations.
The first evaluation met the requirements of Code of Federal Regulations (40 CFR 160). It consisted of determining the single dose toxicity in rats or LD50.

[6] = rabbits, dermal application
Procedure: as §2
The second evaluation was for acute dermal toxicity in rabbits. The protocol, 40 CFR 158.135, 81-2, was to determine the LD50 for dermal application.

[7] = albino rabbits, oxide concentrate
Procedure: as §2
The third evaluation, entitled “Primary Dermal Irritation in Albino Rabbits”, conformed to 40 CFR 160. It consisted of exposing the rabbits for prolonged periods of time and observing edema, erythema, ulceration, necrosis and any other evidence of dermal reactions or tissue destruction.

[8] = crystal concentrate applied
Procedure: as §2
The fourth evaluation dealt with primary eye irritation. This also was in conformity with 40 CFR 160.

Bacillus subtilis 6633 = system: Bacillus subtilis 6633
Procedure: (§3) Both the prepared and commercial materials were submitted for bactericidal evaluation following “good laboratory practice” regulations as set forth in Federal regulations (FIFRA and ffdca/40 CFR 150, May 2, 1984). The silver materials were tested as to whether they could kill pathogenic microorganisms with the intent of utilizing them in pharmaceutical applications. […] Strains of gram positive bacteria were chosen for the evaluation. One family of pathogens that are known for their deleterious effects on humans are popularly called “staph” infections. These infections are commonly contracted in hospitals having lax infectious screening procedures. Accordingly, three staph strains were selected as follows for evaluation: Staphylococcus aureus 9027 and 27543, and Staphylococcus epidermidis 12228. The inoculum nutrient broth was prepared according to AOAC specifications so as to contain 0.6-1 million organisms per drop of inoculum, each drop being equal to 0.05 ml. The broth itself was trypticase soy broth BBL 11766 prepared according to label instructions. Accordingly, the broth was prestandardized for the microorganisms in question in order to assure that the number of organisms remained constant within the margins of statistical allowance during the test period. […] Other gram positive bacteria pathogens were similarly evaluated.

[9] = system: Candida albicans strain 16464; conditions: Sabouraud dextrose broth
Procedure: as §3

Micrococcus luteus 9341 = system: Micrococcus luteus 9341
Procedure: as §3

[10] = system: Staphylococcus epidermidis 12228; conditions: 24 hours at 34-35° C., 10 PPM sodium persulfate
Procedure: as §3

[11] = system: Streptococcus pyogenes 7958
Procedure: as §3

Streptococcus faecalis = conditions: 0.5 PPM; within 0.5 minutes; 10 PPM sodium persulfate; AOAC protocol
Procedure: as §4

E. coli [12] = conditions: 0.5 PPM; within 0.5 minutes; 10 PPM sodium persulfate; AOAC protocol
Procedure: as §4

[13] = system: Enterobacter cloacac 13047; conditions: concentration not given
Candida albercans = conditions: Sabouraud dextrose broth
Staphylococcus aureus = conditions: 24 hours at 34-35° C., 10 PPM sodium persulfate
Procedure: (§5) Once it could be determined that the devices inhibited a particular microorganism, the minimal concentration required of Ag4O4 was determined to inhibit the microorganism in nutrient broth. Strains of gram positive bacteria were chosen for the evaluation. […] Accordingly, three staph strains were selected as follows for evaluation: Staphylococcus aureus 9027 and 27543, and Staphylococcus epidermidis 12228. The inoculum nutrient broth was prepared according to AOAC specifications so as to contain 0.6-1 million organisms per drop of inoculum, each drop being equal to 0.05 ml. The broth itself was trypticase soy broth BBL 11766 prepared according to label instructions. Accordingly, the broth was prestandardized for the microorganisms in question in order to assure that the number of organisms remained constant within the margins of statistical allowance during the test period.

[14] = system: Streptococcus ogalactiae 27956
Procedure: as §5

SMILES: [Ag+].[Ag+].[Ag+].[Ag+].[O-2].[O-2].[O-2].[O-2] [Tetrasilver tetroxide]
- concentration effecting 100% kills of algae (Chorella species): about 1 PPM
- concentration achieving 100% kills (E. coli [1]; E. coli strain 10231): 2.5 PPM
- concentration achieving 100% kills (E. coli [1]; E. coli strain 25254): 2.5 PPM
- kills [2]: 100%
- concentration achieving 100% kills [3]: 5.0 PPM
- concentration at which totally killed [4]: 1.25 PPM
- FDA toxicity category ([5]; single dose toxicity): category IV
- LD50 ([5]; single dose, 3% concentrate, all animals survived): greater than 5000 mg./Kg.
- toxicity category (acute dermal) [6]: category III
- dermal LD50 ([6]; all animals survived maximum dose): greater than 2000 mg./Kg.
- FDA category as dermal agent [7]: category IV
- dermal reactions (edema, erythema, ulceration, necrosis, tissue destruction) ([7]; prolonged exposure): none
- FDA category for eye effects [8]: category IV
- eye irritation [8]: no eye irritation
- minimal inhibiting concentration required for 100% kills (Bacillus subtilis 6633): 5.00 PPM
- concentration completely inhibiting growth [9]: 2.5 PPM
- minimal inhibiting concentration required for 100% kills (Micrococcus luteus 9341): 1.25 PPM
- minimal concentration to inhibit the microorganism [10]: 0.625 PPM
- minimal inhibiting concentration required for 100% kills [11]: 2.50 PPM
- kill of colonies of Streptococcus faecalis (Streptococcus faecalis): 100%
- kill of colonies of E. coli (E. coli [12]): 100%
- kills [13]: 100%
- concentration at which totally killed (Candida albercans): 2.5 PPM
- minimal concentration to inhibit the microorganism (Staphylococcus aureus; Staphylococcus aureus 9027): 2.5 PPM
- minimal concentration to inhibit the microorganism (Staphylococcus aureus; Staphylococcus aureus 27543): 5.0 PPM
- minimal inhibiting concentration required for 100% kills [14]: 1.25 PPM
